In US20210113529A1, “MEDICINE FOR PREVENTING OR TREATING OPHTHALMIC DISEASE ASSOCIATED WITH ENHANCED INTRAOCULAR NEOVASCULARIZATION AND/OR INTRAOCULAR VASCULAR PERMEABILITY” (KYOTO UNIVERSITY, priority 2018, published 2021):

Experiments:
[1] = target: S1P1 receptor (Homo sapiens, UniProt P21453); test: GTP[γ35S] binding assay, S1P1 receptor agonist activity
[2] = target: S1P3 receptor (Homo sapiens, UniProt Q99500); test: GTP[γ35S] binding assay, S1P3 receptor agonist activity; format: biochemical
[3] = test system: human retinal vascular endothelial cells (HRMECs); test: Permeability of human retinal vascular endothelial cells (Transwell, FITC-dextran); format: cell-based; conditions: HRMECs in Transwell; 0.3 nM, 3 nM or 30 nM; 60 minutes pre-culture, 60 minutes after FITC-dextran (40 kDa)
Experimental: The upper chamber of Transwell (diameter: 6.5 mm, pore size: 0.4 μm: Corning Incorporated) coated with collagen and fibronectin was seeded with human retinal vascular endothelial cells (HRMECs) (Cell Systems) at a cell density of 5×10^4 cells/well, and the cells were cultured in Endothelial Cell Growth Medium MV 2 (PromoCell GmbH) under a 5% CO2 atmosphere at 37° C. for 6 days. Then, to the upper chamber and lower chamber of the Transwell, Compound 1 at a final concentration of 0 nM, 0.3 nM, 3 nM, or 30 nM, which had been prepared using 0.001% dimethyl sulfoxide-containing Endothelial Cell Growth Medium MV 2 as a vehicle, was added, and culture was continued. A well to which only the vehicle was added was used as a control. After 60 minutes of culture, 1 mg/mL of fluorescein isothiocyanate (FITC)-dextran (40 kDa: Sigma-Aldrich) was added to the upper chamber of the Transwell, and 60 minutes later, the fluorescence intensity of the medium in the lower chamber was measured to measure the amount of FITC-dextran permeating the lower chamber.

[4] = test system: laser-induced choroidal neovascularization (CNV) model; test: Laser-induced CNV model: fluorescein angiography (FA) grade; format: in vivo, mice; conditions: 0.3 mg/kg orally once daily; Day 14 (Comparative Example 1)
Experimental: A Mydrin-P ophthalmic solution (Santen Pharmaceutical Co., Ltd., Mydrin is a trademark) was dropped into the right eye of 8-week-old mice (Japan SLC, Inc., C56BL/6J strain) to cause mydriasis. A solution obtained by diluting a 7:1 mixed anesthetic solution of ketamine and xylazine 10-fold with physiological saline was administered at 10 mL/kg into the femoral muscle. After that, a 0.1% Hyalein (trademark) ophthalmic solution (Santen Pharmaceutical Co., Ltd.) was dropped into the eye so as to prevent the eyeball from drying. […]
Sampling was performed on the 14th day after the laser irradiation. The mice were anesthetized with 10 mL/kg of a solution obtained by diluting a 7:1 mixed anesthetic solution of ketamine and xylazine 10-fold with physiological saline, and then 0.1 mL of a 10-fold dilution of fluorescein (Alcon Japan Ltd.) was administered into the tail vein of the mice, followed by fluorescence fundus photography using Micron 4 (Phoenix Research Laboratories, Inc. Pleasanton, Calif., USA).
In FIG. 1 (a), Day 0 indicates images taken on the day of the laser irradiation, and Day 14 indicates images taken on the 14th day. In addition, for the image of each group on Day 14, an FA grade was determined for each laser irradiation site in accordance with grade criteria shown in Table 1 to evaluate the leakage of a fluorescent dye from a neovascularization site. […]

[5] = Body weight in CNV model; format: in vivo, mice; conditions: oral once daily dosing, vs vehicle group
Text: A case in which FA was unable to be performed owing to cloudiness caused by a flaw in the eye produced before the FA evaluation and a case in which CNV was connected at the time of the evaluation of the area of CNV were excluded from analysis, and the above-mentioned results were each calculated as a mean of 11 or 12 mice in each group. […] A case in which FA was unable to be performed owing to cloudiness caused by a flaw in the eye produced before the FA evaluation and a case in which CNV was connected at the time of the evaluation of the area of CNV were excluded from analysis, and the above-mentioned results were each calculated as a mean of 12 mice in each group.

[6] = test system: laser-induced choroidal neovascularization (CNV) model; test: Laser-induced CNV model: area of CNV in choroidal flat mount; format: in vivo, mice; conditions: 0.3 mg/kg orally once daily; Day 14 (Comparative Example 1; BZ-X710, Image J)
Experimental: After fluorescence fundus photography had been performed as described above in the section (1), 0.5 mL of fluorescein isothiocyanate dextran (FITC-dextran; 20 mg/mL, Sigma-Aldrich) was administered into the tail vein of the mice. The mice were euthanized by cervical dislocation, and the eyeball was extirpated. The extirpated eyeball was fixed in a 4% paraformaldehyde phosphate buffer for 12 hours. After that, the cornea and lens were excised under a microscope, and the remaining vitreous artery was removed with forceps. Further, the retina was removed, and the choroid was notched 8 points and embedded with Fluoromount (Diagnostic BioSystems) in a flat state to generate a choroidal flat mount specimen. The choroidal flat mount was photographed using a confocal laser scanning microscope (FLUOVIEW FV10i; Olympus, Tokyo, Japan). Next, on the basis of the photographed image, the CNV was encircled using analysis software OLYMPUS FLUOVIEW FV10i (Olympus), and the area thereof was determined as the area of CNV (μm^2). All analyses were performed in a blinded manner. After fluorescence fundus photography had been performed as described above in the section (1), a choroidal flat mount specimen was generated by the same method as in Example 1. The choroidal flat mount was photographed using an all-in-one fluorescence microscope (BZ-X710; Keyence, Osaka, Japan). Next, on the basis of the photographed image, the CNV was encircled using image editing software Image J, and the area thereof was determined as the area of CNV (μm^2). All analyses were performed in a blinded manner.

[7] = target: T1, S1P4 receptor (Homo sapiens, UniProt O95977); conditions: GTP[γ35S] binding assay; report PLoS One, 2014, 9(10), e110819; read-out: EC50 for S1P4 receptor agonist activity; cited from earlier work
T1 sequence (O95977 1-384): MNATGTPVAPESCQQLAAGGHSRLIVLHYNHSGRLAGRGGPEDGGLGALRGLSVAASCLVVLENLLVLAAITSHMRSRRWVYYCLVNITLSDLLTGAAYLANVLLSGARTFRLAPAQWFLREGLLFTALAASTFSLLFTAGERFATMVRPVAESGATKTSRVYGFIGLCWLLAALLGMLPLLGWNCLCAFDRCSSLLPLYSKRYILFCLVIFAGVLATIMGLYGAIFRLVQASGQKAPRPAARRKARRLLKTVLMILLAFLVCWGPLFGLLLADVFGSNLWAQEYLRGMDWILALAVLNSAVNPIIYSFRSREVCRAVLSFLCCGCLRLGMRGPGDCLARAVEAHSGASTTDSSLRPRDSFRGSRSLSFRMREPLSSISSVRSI

Chain of S1P3 receptor (Q99500 whole entry): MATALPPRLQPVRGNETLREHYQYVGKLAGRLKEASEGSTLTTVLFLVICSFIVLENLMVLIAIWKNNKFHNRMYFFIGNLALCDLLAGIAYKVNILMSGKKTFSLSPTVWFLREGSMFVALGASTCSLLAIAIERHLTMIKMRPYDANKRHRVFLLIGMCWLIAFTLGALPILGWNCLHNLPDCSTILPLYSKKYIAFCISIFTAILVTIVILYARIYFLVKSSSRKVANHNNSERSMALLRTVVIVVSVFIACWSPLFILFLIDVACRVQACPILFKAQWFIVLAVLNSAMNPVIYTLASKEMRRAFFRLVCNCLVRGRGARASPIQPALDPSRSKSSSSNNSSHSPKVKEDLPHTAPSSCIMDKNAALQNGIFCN
Chain of S1P1 receptor (P21453 whole entry): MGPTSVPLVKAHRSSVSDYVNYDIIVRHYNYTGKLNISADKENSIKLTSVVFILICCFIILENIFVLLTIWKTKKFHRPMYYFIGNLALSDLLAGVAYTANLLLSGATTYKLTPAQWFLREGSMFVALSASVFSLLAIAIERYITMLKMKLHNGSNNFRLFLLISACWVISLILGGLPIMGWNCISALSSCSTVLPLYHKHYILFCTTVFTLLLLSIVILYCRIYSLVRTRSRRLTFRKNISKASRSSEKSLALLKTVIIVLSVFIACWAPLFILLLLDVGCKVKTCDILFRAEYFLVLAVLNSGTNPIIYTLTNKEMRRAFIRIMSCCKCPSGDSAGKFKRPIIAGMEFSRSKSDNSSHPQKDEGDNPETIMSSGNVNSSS

Question: Which results are given for `Cl.O=C(O)C1CCN(CC2=Cc3ccc(OCc4ccc(OCC(F)(F)F)c(C(F)(F)F)c4)cc3OC2)CC1` [Compound 2, 1-[(7-{[4-(2,2,2-trifluoroethoxy)-3-(trifluoromethyl)phenyl]methoxy}-2H-1-benzopyran-3-yl)methyl]piperidine-4-carboxylic acid monohydrochloride]?
Answer: EC50 [1]: 13.4 nM; EC50 [2]: 1760 nM; EC50 for S1P3 receptor agonist activity as compared to that for the S1P1 receptor [2]: ≥ 100 fold; amount of FITC-dextran permeating the lower chamber (fluorescence intensity) [3]: significantly decreased the amount of FITC-dextran permeating the lower chamber

Question: Which “amount of FITC-dextran permeating the lower chamber (fluorescence intensity)” value [3] does the source give for `CCc1cc(/C(C)=N/OCc2ccc(C3CCCCC3)c(C(F)(F)F)c2)ccc1CN1CC(C(=O)O)C1` [Compound 3, 1-({4-[(1E)-N-{[4-cyclohexyl-3-(trifluoromethyl)phenyl]methoxy}ethanimidoyl]-2-ethylphenyl}methyl)azetidine-3-carboxylic acid] here?
Answer: significantly decreased the amount of FITC-dextran permeating the lower chamber

Question: For `CC(C)Oc1ccc(-c2nc(-c3cccc4c3CC[C@@H]4NCCO)no2)cc1C#N` [Compound 4, 5-(3-{(1S)-1-[(2-hydroxyethyl)amino]-2,3-dihydro-1H-inden-4-yl}-1,2,4-oxadiazol-5-yl)-2-[(propan-2-yl)oxy]benzonitrile], which “amount of FITC-dextran permeating the lower chamber (fluorescence intensity)” value [3] is on record?
Answer: significantly decreased the amount of FITC-dextran permeating the lower chamber

Question: Which “amount of FITC-dextran permeating the lower chamber (fluorescence intensity)” value [3] does the source give for `CCC/N=C1\S/C(=C\c2ccc(OC[C@H](O)CO)c(Cl)c2)C(=O)N1c1ccccc1C` [Compound 5, (2Z,5Z)-5-({3-chloro-4-[(2R)-2,3-dihydroxypropoxy]phenyl}methylidene)-3-(2-methylphenyl)-2-(propylimino)-1,3-thiazolidin-4-one] here?
Answer: significantly decreased the amount of FITC-dextran permeating the lower chamber

Question: With `O=C(O)C[C@H]1CCc2c1[nH]c1ccc(OCc3ccc(C4CCCC4)c(C(F)(F)F)c3)cc21` [Compound 6, [(3R)-7-{[4-cyclopentyl-3-(trifluoromethyl)phenyl]methoxy}-1,2,3,4-tetrahydrocyclopenta[b]indol-3-yl]acetic acid] as the molecule, how does the “amount of FITC-dextran permeating the lower chamber (fluorescence intensity)” value [3] read?
Answer: significantly decreased the amount of FITC-dextran permeating the lower chamber

Question: For `NC(CO)(CCc1ccc(Sc2cccc(OCc3ccccc3)c2)cc1Cl)COP(=O)(O)O` (stereo not shown) [Compound 7, 2-amino-4-(4-{[3-(benzyloxy)phenyl]sulfanyl}-2-chlorophenyl)-2-(hydroxymethyl)butyl dihydrogen phosphate], which “amount of FITC-dextran permeating the lower chamber (fluorescence intensity)” value [3] is on record?
Answer: significantly decreased the amount of FITC-dextran permeating the lower chamber

Question: Which results are given for `CCCCCCCCc1ccc(CCC(N)(CO)CO)cc1.Cl` [FTY720, 2-amino-2-[2-(4-octylphenyl)ethyl]propane-1,3-diol monohydrochloride, reference compound]?
Answer: FA grade as compared to the vehicle group [4]: a significant lowering in FA grade was not found; change in body weight between the groups before sampling [5]: a significant change in body weight between the groups before sampling was not found; area of CNV [6]: not found to significantly decrease the area of CNV

Question: Which EC50 [7] does the source give for `CCCCCCCCc1ccc(CCC(N)(CO)COP(=O)(O)O)cc1` (stereo not shown) [FTY720-P, 2-amino-2-(hydroxymethyl)-4-(4-octylphenyl)butyl dihydrogenphosphate, reference compound] here?
Answer: 2.2 nM
